The source made the active and inactive calls. The calls are words filed in the database; no cut-off is given here.
Experiments:
[1] = system: Trypanosoma cruzi; assay: Antitrypanosomal activity against Trypanosoma cruzi MHOM/Pe/2011/Arequipa DTU 5 epimastigotes assessed as effect on parasite glycolytic pathway by measuring increase in succinate excretion at IC25 after 72 hrs by 1H NMR method; type: functional, organism-based
[2] = system: Trypanosoma cruzi; assay: Antitrypanosomal activity against Trypanosoma cruzi MHOM/Pe/2011/Arequipa DTU 5 epimastigotes assessed as effect on parasite glycolytic pathway by measuring increase in acetate excretion at IC25 after 72 hrs by 1H NMR method; type: functional, organism-based
[3] = system: Trypanosoma cruzi; assay: Trypanocidal activity against Trypanosoma cruzi MHOM/Pe/2011/Arequipa DTU 5 epimastigotes after 72 hrs by resazurin dye based assay; type: functional, organism-based; settings: MHOM/Pe/2011/Arequipa DTU 5, 72 h
[4] = system: Trypanosoma cruzi; assay: Trypanocidal activity against Trypanosoma cruzi IRHOD/CO/2008/SN3 DTU 1 epimastigotes after 72 hrs by resazurin dye based assay; type: functional, organism-based; settings: IRHOD/CO/2008/SN3 DTU 1, 72 h
[5] = system: Trypanosoma cruzi; assay: Trypanocidal activity against Trypanosoma cruzi MHOM/Pe/2011/Arequipa DTU 5 amastigotes infected in African green monkey Vero cells assessed as reduction in infected cells after 72 hrs by Giemsa-staining based assay; type: functional, organism-based; settings: MHOM/Pe/2011/Arequipa DTU 5, Vero
[6] = system: Trypanosoma cruzi; assay: Trypanocidal activity against Trypanosoma cruzi TINF/CH/1956/Tulahuen DTU 6 epimastigotes after 72 hrs by resazurin dye based assay; type: functional, organism-based; settings: TINF/CH/1956/Tulahuen DTU 6, 72 h
[7] = Inhibition of Trypanosoma cruzi MHOM/Pe/2011/Arequipa DTU 5 epimastigotes Fe-SOD by UV-Visible spectrophotometric method
[8] = (§1) Hepatotoxicity in Balb/c mouse infected with Trypanosoma cruzi MHOM/Pe/2011/Arequipa DTU 5 trypomastigotes assessed as change in total bilirubin level at 20 mg/kg, po once daily for 5 consecutive days starting from day 10 post infection measured on day 127 post infection by biochemical analysis (reference value: 0.21 mg/dl); type: toxicity, organism-based; settings: in vivo
[9] = system: Trypanosoma cruzi; assay: Trypanocidal activity against Trypanosoma cruzi TINF/CH/1956/Tulahuen DTU 6 trypomastigotes derived from infected Balb/c mouse after 72 hrs by resazurin dye based assay; type: functional, organism-based; settings: TINF/CH/1956/Tulahuen DTU 6, 72 h
[10] = system: Trypanosoma cruzi; assay: Antitrypanosomal activity against Trypanosoma cruzi MHOM/Pe/2011/Arequipa DTU 5 epimastigotes assessed as effect on parasite glycolytic pathway by measuring increase in L-alanine excretion at IC25 after 72 hrs by 1H NMR method; type: functional, organism-based
[11] = system: Trypanosoma cruzi; assay: Antitrypanosomal activity against Trypanosoma cruzi MHOM/Pe/2011/Arequipa DTU 5 epimastigotes assessed as effect on parasite glycolytic pathway by measuring increase in ethanol excretion at IC25 after 72 hrs by 1H NMR method; type: functional
[12] = system: Trypanosoma cruzi; assay: Trypanocidal activity against Trypanosoma cruzi IRHOD/CO/2008/SN3 DTU 1 amastigotes infected in African green monkey Vero cells after 72 hrs by Giemsa-staining based microscopic assay; type: functional, organism-based; settings: IRHOD/CO/2008/SN3 DTU 1, Vero
[13] = Selectivity index, ratio of IC50 for African green monkey Vero cells to IC50 for Trypanosoma cruzi TINF/CH/1956/Tulahuen DTU 6 trypomastigotes derived from infected Balb/c mouse; type: toxicity; settings: read-out: Ratio IC50
[14] = target: Superoxide dismutase [Cu-Zn] (Homo sapiens, UniProt P00441); assay: Inhibition of human erythrocyte CuZn-SOD by UV-Visible spectrophotometric method
Superoxide dismutase [Cu-Zn], sequence (P00441 whole entry): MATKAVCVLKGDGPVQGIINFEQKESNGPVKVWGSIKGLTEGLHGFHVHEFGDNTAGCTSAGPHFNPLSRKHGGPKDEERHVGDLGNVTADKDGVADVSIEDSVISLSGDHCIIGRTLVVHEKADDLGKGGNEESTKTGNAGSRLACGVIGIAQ

[15] = Selectivity index, ratio of IC50 for African green monkey Vero cells to IC50 for Trypanosoma cruzi IRHOD/CO/2008/SN3 DTU 1 amastigotes infected in African green monkey Vero cells; type: toxicity; settings: read-out: Ratio IC50
[16] = Selectivity index, ratio of IC50 for African green monkey Vero cells to IC50 for Trypanosoma cruzi MHOM/Pe/2011/Arequipa DTU 5 amastigotes infected in African green monkey Vero cells; type: toxicity; settings: read-out: Ratio IC50
[17] = Selectivity index, ratio of IC50 for African green monkey Vero cells to IC50 for Trypanosoma cruzi MHOM/Pe/2011/Arequipa DTU 5 epimastigotes; type: toxicity; settings: read-out: Ratio IC50
[18] = Selectivity index, ratio of IC50 for African green monkey Vero cells to IC50 for Trypanosoma cruzi MHOM/Pe/2011/Arequipa DTU 5 trypomastigotes derived from infected Balb/c mouse; type: toxicity; settings: read-out: Ratio IC50
[19] = Hepatotoxicity in Balb/c mouse infected with Trypanosoma cruzi MHOM/Pe/2011/Arequipa DTU 5 trypomastigotes assessed as increase in alkaline phosphatase level at 20 mg/kg, po once daily for 5 consecutive days starting from day 75 post infection measured on day 81 post infection relative to control; type: toxicity, organism-based; settings: in vivo
[20] = Hepatotoxicity in Balb/c mouse infected with Trypanosoma cruzi MHOM/Pe/2011/Arequipa DTU 5 trypomastigotes assessed as increase in alkaline phosphatase level at 20 mg/kg, po once daily for 5 consecutive days starting from day 10 post infection measured on day 16 post infection relative to control; type: toxicity, organism-based; settings: in vivo
[21] = Nephrotoxicity in Balb/c mouse infected with Trypanosoma cruzi MHOM/Pe/2011/Arequipa DTU 5 trypomastigotes assessed as decrease in serum uric acid level at 20 mg/kg, po once daily for 5 consecutive days starting from day 75 post infection measured on day 127 post infection relative to control; type: toxicity, organism-based; settings: in vivo
[22] = Nephrotoxicity in Balb/c mouse infected with Trypanosoma cruzi MHOM/Pe/2011/Arequipa DTU 5 trypomastigotes assessed as decrease in serum uric acid level at 20 mg/kg, po once daily for 5 consecutive days starting from day 10 post infection measured on day 127 post infection relative to control; type: toxicity, organism-based; settings: in vivo
[23] = system: Trypanosoma cruzi; assay: Antitrypanosomal activity against Trypanosoma cruzi MHOM/Pe/2011/Arequipa DTU 5 epimastigotes assessed as effect on parasite glycolytic pathway by measuring decrease in ethanol excretion at IC25 after 72 hrs by 1H NMR method; type: functional, organism-based
[24] = system: Trypanosoma cruzi; assay: Antitrypanosomal activity against Trypanosoma cruzi MHOM/Pe/2011/Arequipa DTU 5 epimastigotes assessed as effect on parasite glycolytic pathway by measuring decrease in D-lactate excretion at IC25 after 72 hrs by 1H NMR method; type: functional, organism-based
[25] = as §1, with “increase” for “change”, “relative to control” for “(reference value: 0.21 mg/dl)”; type: toxicity, organism-based; settings: in vivo
[26] = Hepatotoxicity in Balb/c mouse infected with Trypanosoma cruzi MHOM/Pe/2011/Arequipa DTU 5 trypomastigotes assessed as increase in serum ALT to GPT level at 20 mg/kg, po once daily for 5 consecutive days starting from day 10 post infection measured on day 16 post infection relative to control; type: toxicity, organism-based; settings: in vivo
[27] = Cardiotoxicity in Balb/c mouse infected with Trypanosoma cruzi MHOM/Pe/2011/Arequipa DTU 5 trypomastigotes assessed as decrease in serum LDH level at 20 mg/kg, po once daily for 5 consecutive days starting from day 75 post infection measured on day 127 post infection relative to control; type: toxicity, organism-based; settings: in vivo
[28] = Cardiotoxicity in Balb/c mouse infected with Trypanosoma cruzi MHOM/Pe/2011/Arequipa DTU 5 trypomastigotes assessed as decrease in serum LDH level at 20 mg/kg, po once daily for 5 consecutive days starting from day 75 post infection measured on day 81 post infection relative to control; type: toxicity, organism-based; settings: in vivo
[29] = (§2) Hepatotoxicity in Balb/c mouse infected with Trypanosoma cruzi MHOM/Pe/2011/Arequipa DTU 5 trypomastigotes assessed as increase in alkaline phosphatase level at 20 mg/kg, po once daily for 5 consecutive days starting from day 75 post infection measured on day 127 post infection relative to control; type: toxicity, organism-based; settings: in vivo
[30] = as §2, with “ratio of serum AST to GOT” for “alkaline phosphatase”; type: toxicity, organism-based; settings: in vivo

Structure (SMILES)	Activity [1]	IC50 [3] [µM]	IC50 [4] [µM]	IC50 [5] [µM]	IC50 [6] [µM]	IC50 [7] [µM]	Activity [8] [mg/dL]	IC50 [9] [µM]	IC50 [12] [µM]	selectivity ratio [13]	IC50 [14] [µM]	selectivity ratio [15]	selectivity ratio [16]	selectivity ratio [17]	selectivity ratio [18]	Activity [19] [U/L]	Activity [20] [U/L]	Activity [21] [mg/dL]	further results
CCCCCCCCCCCCCCCCNc1c(N(C)CCCN(C)C)c(=O)c1=O	Active	7.3	16	5.6	9.5	69.8	0.21	4.7	18.9	144	> 100	35.9	3090	93.1	154	10 to 20			Activity [2]: Active; Activity [10]: Active; Activity [11]: 51%
CCCCCCNc1c(N(C)CCCN(C)C)c(=O)c1=O	Active	20.3	14.3	60.5	14.7	25.3	0.21	17.2	50	52.2	> 100	18	52.1	44.3	139		10 to 20	10 to 20	Activity [22]: 10 to 20 mg/dL; Activity [23]: Active; Activity [24]: Active
O=C(Cn1ccnc1[N+](=O)[O-])NCc1ccccc1 [BENZNIDAZOLE]																> 40	20 to 30	10 to 20	Activity [25]: 10%; Activity [26]: > 40 U/L; Activity [27]: 10 to 20 U/L; Activity [28]: 20 to 30 U/L; Activity [29]: 20 to 30 U/L; Activity [30]: 10 to 20 U/L

Source: ChEMBL document CHEMBL4411344, “Synthesis and biological evaluation of new long-chain squaramides as anti-chagasic agents in the BALB/c mouse model” (Bioorg Med Chem, 2019)
